Assay results taken from PubChem BioAssay AID200 (DTP/NCI, 2004).
Several values for one entry are separate records, joined by “and”; a condition that tells them apart may be missing. Equal values may be shown once. Toxic doses and inconclusive results are not listed. Where a SMILES comes first, the peptide text is derived from it. [ ]: non-standard residue; d: D form. The star is where a group is joined. Cbz = O=C(OCc1ccccc1)*; Nva = CCC[CH](N)C(=O)O

Test system: B6C3F1 mice, B16 melanoma ip, median survival T/C
Assay: NCI In Vivo Anticancer Drug Screen. Data for tumor model B16 Melanoma (intraperitoneal) in B6C3F1 mice
Settings: endpoint: median survival time, higher = longer survival
Procedure, shortened: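 Antitumor effect was judged in mice with transplanted tumors by dividing the treated group's survival measure by that of vehicle controls.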

[1] = dose: 12.5 mg/kg/injection, schedule: Q01DX009 (ip), vehicle: saline
[2] = dose: 25.0 mg/kg/injection, schedule: Q01DX009 (ip), vehicle: saline
[3] = dose: 50.0 mg/kg/injection, schedule: Q01DX009 (ip), vehicle: saline
[4] = dose: 12.5 mg/kg/injection, schedule: Q01DX009 (ip), vehicle: saline with Tween-80
[5] = dose: 25.0 mg/kg/injection, schedule: Q01DX009 (ip), vehicle: saline with Tween-80
[6] = dose: 50.0 mg/kg/injection, schedule: Q01DX009 (ip), vehicle: saline with Tween-80
[7] = dose: 100.0 mg/kg/injection, schedule: Q01DX009 (ip), vehicle: saline with Tween-80
[8] = dose: 200.0 mg/kg/injection, schedule: Q01DX009 (ip), vehicle: saline with Tween-80
[9] = dose: 400.0 mg/kg/injection, schedule: Q01DX009 (ip), vehicle: saline with Tween-80
[10] = dose: 100.0 mg/kg/injection, schedule: Q01DX009 (ip), vehicle: Klucel (hydroxypropylcellulose) (HPC)
[11] = dose: 200.0 mg/kg/injection, schedule: Q01DX009 (ip), vehicle: Klucel (hydroxypropylcellulose) (HPC)
[12] = dose: 400.0 mg/kg/injection, schedule: Q01DX009 (ip), vehicle: Klucel (hydroxypropylcellulose) (HPC)
[13] = dose: 100.0 mg/kg/injection, schedule: Q01DX009 (ip), vehicle: saline
[14] = dose: 200.0 mg/kg/injection, schedule: Q01DX009 (ip), vehicle: saline

COc1oc(C2C/C(=C/C(C)=C/C(C)=C/C(C)=C/c3ccc([N+](=O)[O-])cc3)CO2)c(C)c(=O)c1C (configuration not stated)
T/C (dose: 0.25 mg/kg/injection, schedule: Q01DX009 (ip), vehicle: saline with Tween-80): 96 % of control | T/C (dose: 0.5 mg/kg/injection, schedule: Q01DX009 (ip), vehicle: saline with Tween-80): 98 % of control | T/C (dose: 1.0 mg/kg/injection, schedule: Q01DX009 (ip), vehicle: saline with Tween-80): 99 % of control | T/C (dose: 2.0 mg/kg/injection, schedule: Q01DX009 (ip), vehicle: saline with Tween-80): 103 % of control

CCOC(=O)N1CCN(CCCCCOc2ccc(CC(C)(C)C)cc2Cl)CC1
T/C (dose: 3.13 mg/kg/injection, schedule: Q01DX009 (ip), vehicle: saline): 109 % of control | T/C (dose: 6.25 mg/kg/injection, schedule: Q01DX009 (ip), vehicle: saline): 121 % of control | T/C [1]: 112 % of control | T/C [2]: 101 % of control

CCOc1ccc(C(C)c2cc3c(cc2OC)OCO3)cc1 (configuration not stated)
T/C (dose: 25.0 mg/kg/injection, schedule: Q01DX009 (ip), vehicle: distilled water + Tween-80): 123 % of control | T/C (dose: 50.0 mg/kg/injection, schedule: Q01DX009 (ip), vehicle: distilled water + Tween-80): 107 % of control

CC(=O)O[C@@H]1C(=O)C=C(C)[C@@H]2[C@@H](OC(=O)C=C(C)C)[C@H]3OC(=O)C[C@H]4[C@@H](C)[C@@H](O)[C@]5(O)OC[C@]34[C@H]5[C@@]12C
T/C (dose: 1.0 mg/kg/injection, schedule: Q01DX005 (ip), vehicle: distilled water + Tween-80): 163 % of control | T/C (dose: 2.0 mg/kg/injection, schedule: Q01DX005 (ip), vehicle: distilled water + Tween-80): 160 % of control | T/C (dose: 4.0 mg/kg/injection, schedule: Q01DX009 (ip), vehicle: distilled water + Tween-80): 155 % of control | T/C (dose: 8.0 mg/kg/injection, schedule: Q01DX005 (ip), vehicle: distilled water + Tween-80): 156 % of control | T/C (dose: 8.0 mg/kg/injection, schedule: Q01DX009 (ip), vehicle: distilled water + Tween-80): 162 % of control

CNC(=O)ON(C(C)=O)C(=O)NC
T/C [1]: 102 % of control | T/C [2]: 107 % of control | T/C [3]: 102 % of control

Nc1nc(=S)c2ncn(C3OC(CO)CC3O)c2[nH]1 (configuration not stated)
T/C (dose: 5.0 mg/kg/injection, schedule: Q01DX009 (ip), vehicle: saline): 110 % of control | T/C (dose: 10.0 mg/kg/injection, schedule: Q01DX009 (ip), vehicle: saline): 122 % of control | T/C (dose: 40.0 mg/kg/injection, schedule: Q01DX009 (ip), vehicle: saline): 94 % of control

S=c1[nH]cc2cnccn12
T/C [4]: 94 % of control and 95 % of control | T/C [5]: 93 % of control and 98 % of control | T/C [6]: 93 % of control and 96 % of control | T/C [7]: 97 % of control and 100 % of control | T/C [8]: 91 % of control and 92 % of control | T/C [9]: 97 % of control

CSCCC(NC(=O)CNC(=O)CNC(=O)OCc1ccccc1)C(=O)O (configuration not stated) (HELM PEPTIDE1{[O=C(OCc1ccccc1)[*:2]].G.G.[CSCCC(N[*:1])C(=O)O]}$$$$V2.0)
T/C [10]: 100 % of control | T/C [11]: 103 % of control | T/C [12]: 108 % of control

COc1cc2c[n+](C)c3c(c2cc1OC)Cc1cc2c(cc1-3)OCO2
T/C [4]: 120 % of control | T/C (dose: 12.5 mg/kg/injection, schedule: Q01DX009 (ip), vehicle: suspension in saline): 111 % of control | T/C (dose: 25.0 mg/kg/injection, schedule: Q01DX009 (ip), vehicle: suspension in saline): 111 % of control | T/C (dose: 50.0 mg/kg/injection, schedule: Q01DX009 (ip), vehicle: suspension in saline): 110 % of control

CCCC(NC(=O)OCc1ccccc1)C(=O)NC(C(=O)O)C(C)C (configuration not stated) (Cbz-[Nva]-Val-OH; configuration not given here)
T/C [10]: 102 % of control | T/C [11]: 109 % of control | T/C [12]: 99 % of control

C=C1C(O)C2(O)OCC34C(CC5C(C)=CC(=O)C(O)C5(C)C23)OC(=O)C(OC(=O)C/C=C(\C)CCCCC)C14 (configuration not stated)
T/C (dose: 4.0 mg/kg/injection, schedule: Q01DX009 (ip), vehicle: saline + alcohol): 187 % of control | T/C (dose: 4.8 mg/kg/injection, schedule: Q01DX009 (ip), vehicle: saline + Tween-80 + alcohol): 156 % of control | T/C (dose: 8.0 mg/kg/injection, schedule: Q01DX009 (ip), vehicle: saline + Tween-80 + alcohol): 154 % of control | T/C (dose: 8.0 mg/kg/injection, schedule: Q01DX009 (ip), vehicle: saline + alcohol): 187 % of control

COC1=Nc2ccccc2N2CCN=C12
T/C (dose: 6.25 mg/kg/injection, schedule: Q04DX003 (ip), vehicle: saline with Tween-80): 103 % of control | T/C (dose: 12.5 mg/kg/injection, schedule: Q04DX003 (ip), vehicle: saline with Tween-80): 106 % of control | T/C (dose: 25.0 mg/kg/injection, schedule: Q04DX003 (ip), vehicle: saline with Tween-80): 96 % of control | T/C (dose: 50.0 mg/kg/injection, schedule: Q04DX003 (ip), vehicle: saline with Tween-80): 96 % of control

CCC1CN2CCC3(C(=O)Nc4ccccc43)C2CC1/C(=C/OC)C(=O)OC (configuration not stated)
T/C (dose: 6.25 mg/kg/injection, schedule: Q01DX009 (ip), vehicle: saline with Tween-80): 90 % of control | T/C [4]: 108 % of control | T/C [5]: 93 % of control | T/C [6]: 93 % of control

COc1cc2cc(c1Cl)N(C)C(=O)CC(OC(=O)C(C)NC(=O)C(C)C)C1(C)OC1C(C)C1CC(O)(NC(=O)O1)C(OC)/C=C/C=C(C)C2OC (configuration not stated)
T/C (dose: 4.0 micrograms/kg/injection, schedule: Q01DX009 (ip), vehicle: distilled water + alcohol): 102 % of control | T/C (dose: 8.0 micrograms/kg/injection, schedule: Q01DX009 (ip), vehicle: distilled water + alcohol): 114 % of control

Oc1cc(O)cc(/C=C/c2ccc(O)c(O)c2)c1
T/C (dose: 6.25 mg/kg/injection, schedule: Q01DX009 (ip), vehicle: DMSO): 118 % of control | T/C (dose: 12.5 mg/kg/injection, schedule: Q01DX009 (ip), vehicle: DMSO): 111 % of control | T/C (dose: 50.0 mg/kg/injection, schedule: Q01DX009 (ip), vehicle: DMSO): 117 % of control | T/C (dose: 100.0 mg/kg/injection, schedule: Q01DX009 (ip), vehicle: DMSO): 113 % of control and 96 % of control

Cc1nnc(SCC2=C(C(=O)O)N3C(=O)C(NC(=O)Cn4cnnn4)C3SC2)s1 (configuration not stated)
T/C [3]: 91 % of control | T/C [13]: 93 % of control | T/C [14]: 95 % of control

CC(C)(C)C1CCCCC1
T/C (dose: 12.5 mg/kg/injection, schedule: Q01DX009 (ip), vehicle: Klucel (hydroxypropylcellulose) (HPC)): 97 % of control | T/C (dose: 25.0 mg/kg/injection, schedule: Q01DX009 (ip), vehicle: Klucel (hydroxypropylcellulose) (HPC)): 92 % of control | T/C (dose: 50.0 mg/kg/injection, schedule: Q01DX009 (ip), vehicle: Klucel (hydroxypropylcellulose) (HPC)): 88 % of control

CCN(CC)C(=S)S
T/C [3]: 92 % of control | T/C (dose: 50.0 mg/kg/injection, schedule: Q01DX009 (ip), vehicle: sodium bicarbonate): 105 % of control | T/C [13]: 96 % of control | T/C (dose: 100.0 mg/kg/injection, schedule: Q01DX009 (ip), vehicle: sodium bicarbonate): 92 % of control | T/C [14]: 102 % of control | T/C (dose: 200.0 mg/kg/injection, schedule: Q01DX009 (ip), vehicle: sodium bicarbonate): 105 % of control | T/C (dose: 400.0 mg/kg/injection, schedule: Q01DX009 (ip), vehicle: saline): 94 % of control | T/C (dose: 400.0 mg/kg/injection, schedule: Q01DX009 (ip), vehicle: sodium bicarbonate): 105 % of control | T/C (dose: 800.0 mg/kg/injection, schedule: Q01DX009 (ip), vehicle: saline): 95 % of control | T/C (dose: 800.0 mg/kg/injection, schedule: Q01DX009 (ip), vehicle: sodium bicarbonate): 95 % of control

COC1C(C)OC(OC2CC(C)(O)Cc3cc4c(c(O)c32)C(=O)c2c(O)cc3c(c2C4=O)OC2OC3(C)C(O)C(N(C)C)C2O)C(OC)C1(C)OC (configuration not stated)
T/C (dose: 0.16 mg/kg/injection, schedule: Q01DX009 (ip), vehicle: other): 92 % of control | T/C (dose: 0.31 mg/kg/injection, schedule: Q01DX009 (ip), vehicle: other): 95 % of control and 102 % of control | T/C (dose: 0.62 mg/kg/injection, schedule: Q01DX009 (ip), vehicle: other): 113 % of control | T/C (dose: 0.63 mg/kg/injection, schedule: Q01DX009 (ip), vehicle: other): 116 % of control and 124 % of control and 97 % of control | T/C (dose: 5.0 mg/kg/injection, schedule: Q01DX009 (ip), vehicle: other): 157 % of control and 175 % of control

Cc1ccc(Cl)c2ccccc12
T/C [4]: 101 % of control and 104 % of control | T/C [5]: 100 % of control and 101 % of control and 104 % of control | T/C [6]: 101 % of control and 105 % of control and 107 % of control | T/C [7]: 94 % of control and 98 % of control | T/C [8]: 94 % of control

N#CCCSC(=S)C1CCCC1=N (configuration not stated)
T/C [4]: 103 % of control | T/C [5]: 106 % of control | T/C [6]: 98 % of control | T/C [7]: 106 % of control | T/C [8]: 103 % of control | T/C [9]: 104 % of control
